# How the values were obtained:
# [1] = test system: spiggin mRNA in adult female stickleback kidney; assay: Induction of spiggin mRNA in stickleback kidney after steroid implants (slot blot); assay type: in vivo, three-spined stickleback (Gasterosteus aculeatus)
# Method: (§1) The fish were anesthetized with 0.1% (v/v) 2-phenoxyethanol (Sigma, St. Louis, MO, USA) and implanted intraperitoneally with Silclear silicone tubing (10-mm length, 0.6-mm inner diameter, 1.2-mm outer diameter) containing steroids dissolved in cocoa butter. […] KA was used as this steroid is converted into KT by the fish. Tubes containing cocoa butter alone were used as controls. Following implantation the fish were maintained in 50-liter aquaria containing brackish water (0.5% salinity) at 20°C under LD 16:8 h. At sampling fish were decapitated and the kidneys were excised, frozen using liquid nitrogen, and stored at -70°C. A number of experiments were performed as follows. Spiggin mRNA was measured in post-breeding females that were dissected 2 days following implantation of tubes. Cytosolic androgen-receptors were measured in females and in castrated males. Males were castrated under anesthesia as above, by making a 1.5 mm long incision into the abdominal cavity on each side and removing the testes using forceps. The females and the castrated males were implanted with control and high dose tubes and dissected after 6 days. AR mRNA was studied in females implanted for 12 h, 2 and 16 days (separate experiments) with control and high dose tubes and in males castrated as above and implanted for 10 days with control tubes and high doses of KA or E2.
# (§2) Total RNA was extracted using Tri Reagent™ (Sigma). Aliquots of 10 μg of total RNA were mixed with denaturing solution (6 × SSC, 7% (v/v) formaldehyde) and transferred onto a nylon membrane (Amersham Pharmacia Biotech) using a Minifold II Slot Blot Apparatus (Schleicher and Schuell, Keene, NH, USA). Membranes were probed using either a randomly primed [α-^32P]-dCTP radiolabelled AR cDNA fragment (918 base pairs) that was isolated by reverse transcriptase-polymerase chain reaction and sequenced as above, or a randomly primed [α-^32P]-dCTP radiolabelled spiggin-α cDNA. Hybridizations were performed at 65°C overnight (6 × SCC, 0.1% (w/v) SDS, 100 μg ml^-1 tRNA, and 5 × Denhardt's solution). The membranes were washed for 2 × 30 minutes at 42°C and 65°C in 0.1 × SCC, 0.1% (w/v) SDS whereafter Hyperfilm™-MP film was exposed at -70°C. The films were visualized using Curix 60 Film Developer. Following AR and spiggin mRNA determination the membranes were stripped and analyzed for 18S rRNA using a cDNA fragment as internal control. Each AR or spiggin transcript was then semi-quantified using Quantity ONE 4.2.3 (Bio-Rad, Laboratories, Inc, Hercules, CA, USA) in relation to its internal 18S transcript.
# [2] = test system: AR protein and AR mRNA in stickleback kidney; assay: Hormone regulation of kidney AR protein (radioreceptor assay) and AR mRNA (slot blot); assay type: in vivo, three-spined stickleback (Gasterosteus aculeatus); conditions: data not shown; for regulation of AR protein (radioreceptor assay): sticklebacks exposed for 6 days
# Method: as §1, §2
# Aliquots (250 μl) of the nuclear or cytosolic preparations were added to each tube, the tubes were vortexed and incubated over night at 4°C. To stop the binding reaction, 250 μl DCC was added to each tube. The tubes were vortexed and the suspensions were incubated for 5 min at 4°C, before spinning at 3,000 × g at 4°C for 5 min. The supernatants were decanted into 7 ml scintillation vials, 5 ml of standard scintillation cocktail was added and the radioactivity in each sample was measured in a liquid scintillation counter (Beckman LS 6000SC, Beckman Instruments, Fullerton, CA). The procedure used for the expressed recombinant ARβ2 was modified as follows. […] The expressed proteins were diluted 1:100 and aliquots (100 μl) were added to each reaction tube. The tubes were vortexed and incubated over night at 4°C. To stop the binding reaction, 200 μl DCC was added to each tube. The tubes were vortexed and the suspension were incubated for 5 min at 4°C, before spinning at 3,000 × g at 4°C for 5 min. 250 μl of the supernatant was transferred into 5 ml scintillation vials and 4 ml of standard scintillation cocktail was added before the radioactivity in each sample was measured in a liquid scintillation counter (Wallac 1409, Wallac Oy, Turku, Finland).
# [3] = target: T1, AR in stickleback kidney cytosolic extracts (Gasterosteus aculeatus, UniProt Q801Z1); assay: Ligand competition assay with 1 nM [3H]-DHT, kidney cytosolic extracts; assay type: binding, three-spined stickleback (Gasterosteus aculeatus)
# T1 sequence (Q801Z1 1-682): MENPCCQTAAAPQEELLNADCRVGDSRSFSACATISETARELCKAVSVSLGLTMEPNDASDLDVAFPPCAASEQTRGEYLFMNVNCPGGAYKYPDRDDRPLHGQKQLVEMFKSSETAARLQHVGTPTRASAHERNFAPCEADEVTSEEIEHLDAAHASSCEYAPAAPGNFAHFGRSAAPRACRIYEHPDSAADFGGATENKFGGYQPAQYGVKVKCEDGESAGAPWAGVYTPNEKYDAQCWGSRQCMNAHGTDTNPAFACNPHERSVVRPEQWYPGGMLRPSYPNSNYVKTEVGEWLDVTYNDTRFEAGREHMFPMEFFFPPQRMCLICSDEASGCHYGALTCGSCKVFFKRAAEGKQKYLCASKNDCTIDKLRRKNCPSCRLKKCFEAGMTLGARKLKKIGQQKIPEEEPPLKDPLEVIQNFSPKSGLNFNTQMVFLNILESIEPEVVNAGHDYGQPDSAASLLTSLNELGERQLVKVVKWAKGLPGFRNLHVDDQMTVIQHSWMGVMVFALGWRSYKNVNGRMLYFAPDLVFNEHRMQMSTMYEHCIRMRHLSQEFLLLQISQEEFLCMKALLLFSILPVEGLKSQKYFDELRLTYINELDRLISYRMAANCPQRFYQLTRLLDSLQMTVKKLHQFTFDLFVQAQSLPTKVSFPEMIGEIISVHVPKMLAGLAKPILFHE
# Method: (§3) The steroid specificity of receptor binding was examined using a competitive binding assay. […] Following incubation, the reaction was terminated by addition of DCC and centrifugation and the specific binding in each tube was determined as described above.
# stickleback ARβ2 = assay: ARE-luciferase trans-activation assay, stickleback ARβ2 in transfected HepG2 and ZFL cells; assay type: cell-based, three-spined stickleback (Gasterosteus aculeatus); conditions: 40 h, versus control
# Method: Two liver epithelial cell lines were used to test receptor activity. HepG2 cells (ATCC, Manassas, VA) were maintained in DMEM supplemented with 10% FCS and non-essential amino acids. ZFL cells (ATCC) were maintained in 50% L-15 Leibovitz, 15% […] and 35% DMEM supplemented with 10% FCS (Gibco, Paisley, Scotland, UK) and 50 ng ml-1 EGF (Sigma). Cells were cultured at 37°C (HepG2) or 28°C (ZFL) in 5% CO2. The transfection experiments were initiated by replacing the tissue culture medium with fresh phenol-free medium supplemented with charcoal stripped FCS and the cells were seeded on 24-well plates. Transfections were performed at 90–95% confluence using 1,5 μl Lipofectamine 2000 (Invitrogen, Carlsbad, CA, USA) and 0,6 μg DNA per well. Transfected DNA contained 60 ng pRL (Promega), 270 ng androgen response element (ARE) luciferase reporter vector, 270 ng stickleback ARβ2 expression vector or 270 ng human AR expression vector (pCMVhAR) while 270 ng empty TNT cloning vector was used to control background luciferase levels following transfections. Two different ARE containing promoter constructs were tested, one containing 3 separate ARE (HRE; slp-ARU) and a second one construct (slp-HRE2) containing 4 copies of the ARE with high affinity for R1881, a synthetic androgen, and low affinity for dexamethasone, a synthetic glucocorticoid.
# After 16 h the transfection medium was replaced with fresh phenol-free medium, supplemented with charcoal stripped FCS, containing different steroid hormones. The cells were exposed to the hormones for 40 h and luciferase levels were detected using the Dual Luciferase Assay kit (Promega) in a TD 20/20 Luminometer (Turner Designs, Sunnyvale, CA). For each cell line, transfection assay was performed for each concentration with n = 4 and the luciferase value of each assay were normalized to its corresponding Renilla luciferase activity. Each experiment was repeated a minimum of 3 times. The fold-induction is presented as luciferase values normalized against the control. The control levels were arbitrarily set to 1.0 for each cell line.
# rainbow trout ARα = conditions: COS-1 cell line; read-out: IC50 (ligand binding); cited from earlier work
# [4] = target: T2, stickleback ARβ2 (reticulocyte lysate) (Gasterosteus aculeatus, UniProt Q801Z2); assay: Ligand competition assay with 1 nM [3H]-DHT, ARβ2 containing reticulocyte extract; assay type: binding, three-spined stickleback (Gasterosteus aculeatus)
# T2 sequence (Q801Z2 1-735): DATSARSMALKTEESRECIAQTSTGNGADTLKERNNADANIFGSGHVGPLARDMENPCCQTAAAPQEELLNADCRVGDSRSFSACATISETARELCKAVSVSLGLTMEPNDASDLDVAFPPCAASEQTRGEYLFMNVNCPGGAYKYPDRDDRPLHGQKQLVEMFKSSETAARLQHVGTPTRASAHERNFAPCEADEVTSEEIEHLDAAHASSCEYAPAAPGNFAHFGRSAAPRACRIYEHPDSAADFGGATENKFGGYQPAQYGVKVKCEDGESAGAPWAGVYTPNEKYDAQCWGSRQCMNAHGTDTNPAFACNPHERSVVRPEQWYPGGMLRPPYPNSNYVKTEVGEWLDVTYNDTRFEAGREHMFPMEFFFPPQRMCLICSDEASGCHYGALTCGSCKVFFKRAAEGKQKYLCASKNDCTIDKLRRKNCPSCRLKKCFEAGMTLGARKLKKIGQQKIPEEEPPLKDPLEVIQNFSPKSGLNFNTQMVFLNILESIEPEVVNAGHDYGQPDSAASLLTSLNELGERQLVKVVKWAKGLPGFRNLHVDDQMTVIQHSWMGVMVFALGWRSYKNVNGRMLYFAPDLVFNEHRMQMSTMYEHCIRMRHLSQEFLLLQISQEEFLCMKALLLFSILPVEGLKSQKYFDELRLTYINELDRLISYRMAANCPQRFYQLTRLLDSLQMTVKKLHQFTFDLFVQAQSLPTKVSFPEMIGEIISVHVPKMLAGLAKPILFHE
# Method: The excised AR pBK CMV clones were digested with XbaI and EcoRI and the inserts were gel purified prior to ligation into the pCMV-TNT vector (Promega) between XbaI and EcoRI. […] AR was expressed by introducing the pCMV-TNT into the TNT coupled reticulocyte lysate system (Promega) according to the manufacturer's instructions. The size of the expressed products was determined by addition of S^35-methionin to the reticulocyte lysate system. The obtained protein suspension was analyzed on a denaturing 8% SDS PAGE and the sizes were determined using prestained SDS-PAGE broad range protein molecular weight standard (Bio-Rad) and a control luciferase protein of 62 kDa included in the reticulocyte lysate system (Promega). For use in binding assays AR was expressed in the absence of radioactive S^35-methionein and stored at 4°C until further used in recombinant binding assay experiments.
# as §3
# [5] = test system: spiggin mRNA in adult female stickleback kidney; conditions: cited from earlier work
SMILES,regulation of AR mRNA (slot blot) [2],regulation of AR protein (radioreceptor assay) [2],binding observed (competition for [3H]-DHT) [3],also measured
"C[C@]12CC[C@H]3[C@@H](CCC4=CC(=O)CC[C@@]43C)[C@@H]1CC[C@@H]2O [T, testosterone]",None of the three tested androgens regulated,None of the three tested androgens regulated,,"spiggin induction ([1]; 1 μg implant dose, females): not inducing spiggin production"
"C[C@@H](O)[C@@]1(O)CC[C@H]2[C@@H]3CCC4=CC(=O)CC[C@]4(C)[C@H]3CC[C@@]21C [17,20β-P, 17,20β-dihydroxy-4-pregnen-3-one]",,,not,
"C[C@]12CCC(=O)C[C@@H]1CC[C@@H]1[C@@H]2CC[C@]2(C)[C@@H](O)CC[C@@H]12 [DHT, 5α-dihydrotestosterone]",None of the three tested androgens regulated,None of the three tested androgens regulated,,induction of luciferase activity (stickleback ARβ2; HepG2 cells): 4.1 fold; induction of luciferase activity (stickleback ARβ2; ZFL cells): 4.5 fold; IC50 (rainbow trout ARα): 0.6 nM
"C[C@]12CCC(=O)C=C1CC[C@@H]1[C@@H]2[C@@H](O)C[C@@]2(C)[C@H]1CC[C@]2(O)C(=O)CO [F, cortisol]",,,not,binding (competition for [3H]-DHT) [4]: poor binding
"CC12CCC(=O)C=C1CCC1C2CCC2(C)C1CCC2(O)C(O)CO (stereo not drawn) [20β-S, 17,20β,21-trihydroxy-4-pregnen-3-one]",,,not,
CC(C)C(=O)Nc1ccc([N+](=O)[O-])c(C(F)(F)F)c1 [flutamide],,,,"blocking of androgen induction of spiggin protein and mRNA synthesis ([5]; anti-androgen, ref 25 and Olsson, Berg, Lindberg, unpublished results): can be blocked"
"C[C@]12CC[C@@H]3c4ccc(O)cc4CC[C@H]3[C@@H]1CC[C@@H]2O [E2, 17β-estradiol]",repressor,repressor,,EC50 ([4]; read-out: EC50 (competition for [3H]-DHT binding)): 64.61 ± 0.28 nM
"C[C@]12CCC(=O)C=C1CC[C@@H]1[C@@H]2C(=O)C[C@]2(C)C(=O)CC[C@@H]12 [KA, 11-ketoandrostenedione]",None of the three tested androgens regulated,None of the three tested androgens regulated,,"effectiveness at increasing kidney spiggin mRNA levels relative to T ([1]; 25 μg implant dose, females): 50 times; increase in spiggin mRNA levels ([1]; females implanted with 25 μg KA, 2 days, versus control): 30 fold; spiggin mRNA induction after longer exposures ([5]; 16 days exposure): only observed with KA"

# Source: PMC1192819, “Molecular cloning and characterization of a nuclear androgen receptor activated by 11-ketotestosterone” (Reproductive biology and endocrinology : RB&E, 2005)
